Patent US20140038883A1, “NOVEL AZACOUMARIN DERIVATIVES HAVING MDR PUMP INHIBITING ACTIVITY” (UNIVERSITE CLAUDE BERNARD LYON 1, priority 2011, published 2014)
Each block holds one molecule with its values, some of them ahead of it.

Experiments:
[1] = test system: Fifty-six strains belonging to 19 genera; test: Spectrum of activity: potentiating effect of compound I.12 on ciprofloxacin (MIC method); type: cell-based
Experimental: (§1) The antibiotic used is ciprofloxacin with the same dilution as in section B.1. The compound I.12 is also used under the same conditions as in section B.1.
(§2) Fifty-six strains belonging to 19 genera were used (TABLE 6).
(§3) Nine of these strains are ATCC strains and 47 are of clinical origins and come from the Centre de Biologie Est [Eastern Biological Center] in Bron. Eighteen staphylococcal strains are tested: 1 strain of S. epidermidis, 2 strains of S. aureus, 10 MRSA (methicillin-resistant S. aureus) and 5 VISA (vancomycin intermediate sensitivity S. aureus). Sixteen enterococcal strains are also tested, i.e. 9 E. faecium and 7 E. faecalis. The latter 2 species grouped together 2 vancomycin-sensitive strains (1 per species), and 14 resistant strains (VRE, respectively 8 E. faecium and 6 E. faecalis).
(§4) This potentiating effect is evaluated as previously. However, the growth of certain microorganisms (Streptococcus pneumoniae, S. agalactiae, S. pyogenes, Corynebacterium amycolatum and Listeria monocytogenes) in liquid medium requires defibrinated horse blood lysed in 50% of sterile osmosed water via a succession of 7 freezings (−20° C.)/thawing (ambient temperature). The 50% blood is then centrifuged at ambient temperature at 12 000 rpm for 20 min. The supernatant is introduced into sterile, additive-free MH II in an amount of 5% by volume.

[2] = test system: VISA (strain V4); test: Chessboard method, I.12 combined with ciprofloxacin (FIC); type: cell-based, Staphylococcus aureus; details: I.12 and ciprofloxacin; FIC≦0.5 = synergy
[3] = test system: Enterococcus faecalis (VSE, VRE strains); test: Spectrum of activity: I.12 + ciprofloxacin, E. faecalis strains; type: cell-based; details: for Number of sensitive strains / Percentage of sensitive strains: ciprofloxacin + I.12
Experimental: as §1, §2, §3, §4

[4] = test system: S. aureus K 1712 (strain without NorA pump); test: Chessboard method, I.12 combined with antibiotics; type: cell-based, Staphylococcus aureus; details: each ATB
[5] = test system: S. aureus 1199B (strain overexpressing NorA); test: Chessboard method, I.12 combined with antibiotics; type: cell-based, Staphylococcus aureus
[6] = test system: S. aureus ATCC 29213; test: Time kill curve method, I.12/ciprofloxacin combination; type: cell-based, Staphylococcus aureus; details: ciprofloxacin (0.5 mg/ml and 0.125 mg/m)/I.12 (31 μM); mean of two experiments
Experimental: The time kill curve is performed in 6-well plates. Each well contains 5 ml of MH II broth inoculated with bacteria in the exponential growth phase (final concentrations at 10^6 CFU/ml). The various bacterial growth conditions tested are: • Well 1: 0.5 mg/ml of ciprofloxacin +31 μM of I.12. • Well 2: 0.125 mg/ml of ciprofloxacin +31 μM of I.12. • Well 3: 0.5 mg/ml of ciprofloxacin. • Well 4: 0.125 mg/ml of ciprofloxacin. • Well 5: 31 μM of I.12. • Well 6: No molecule.
The cultures are incubated at 37° C. with shaking at 400 rpm. Samples are taken every hour for the first 6 hours, and at 22 hours. The live bacteria are counted by culturing on a dish after dilutions of the cultures.

[7] = test system: Staphylococcus aureus (MSSA, MRSA, VISA strains); test: Spectrum of activity: I.12 + ciprofloxacin, S. aureus strains; type: cell-based; details: for Number of sensitive strains / Percentage of sensitive strains: ciprofloxacin + I.12
Experimental: as §1, §2, §3, §4

[8] = test system: S. aureus ATCC 29213; test: Chessboard method, I.12 combined with antibiotics (FIC); type: cell-based, Staphylococcus aureus; details: I.12 and ciprofloxacin; FIC≦0.5 = synergy
Experimental: The antibiotics used are erythromycin, ciprofloxacin, vancomycin, tetracycline and oxacillin.
The sensitivity of S. aureus ATCC 29213 to the combination of the antibiotic molecules ciprofloxacin and the compound I.12 and the effect of each of the two molecules on the activity of the other are determined using the chessboard method. This method is carried out in a round-bottomed 96-well plate (12 columns by 8 rows). Various concentrations of ciprofloxacin and of compound I.12 are obtained by a dilution of their stock solutions in MH II broth. Fifty microliters of the dilution range of the compound I.12 are deposited in each well of columns 1 to 10, each row corresponding to a dilution of this compound. Fifty microliters of the dilution range of ciprofloxacin are deposited in the wells of columns 2 to 10, each column corresponding to a dilution. This same dilution range of ciprofloxacin is also prepared in column 11. Fifty microliters of MH II broth are deposited in the wells of columns 1 and 11. Finally, 100 μl of bacterial suspension at 10^6 CFU (Colony-Forming Units)/ml are introduced in each well of columns 1 to 10 (final concentration of bacteria: 5×10^5 CFU/ml).
The plate is read visually. […] The fractional inhibitory concentration (FIC) is calculated by adding the FIC of the compound I.12 (FICI.12) and the FIC of ciprofloxacin (FICcipro) according to the following formulae: […]

[9] = test system: Enterococcus faecium (VSE, VRE strains); test: Spectrum of activity: I.12 + ciprofloxacin, E. faecium strains; type: cell-based; details: for Number of sensitive strains / Percentage of sensitive strains: ciprofloxacin + I.12
Experimental: as §1, §2, §3, §4

[10] = test system: MRSA (strain ST07 1012); test: Chessboard method, I.12 combined with ciprofloxacin (FIC); type: cell-based, Staphylococcus aureus; details: I.12 and ciprofloxacin; FIC≦0.5 = synergy
[11] = test system: Staphylococcus epidermidis; test: Spectrum of activity: I.12 + ciprofloxacin, S. epidermidis; type: cell-based
Experimental: as §1, §2, §3, §4

[12] = test system: S. aureus ATCC 29213, 1199b, 1199, K1712, 8325.4; test: Supplemental EPI tests: potentiation of antibiotic MICs; type: cell-based, Staphylococcus aureus
Experimental: (§5) The molecules of which the EPI effect was evaluated are: I.1 (24 μmol/l), I.6 (16 μmol/l) and I.14 (31 μmol/l).
(§6) The antibiotics with which these molecules were combined are: ciprofloxacin and norfloxacin; tetracycline; oxacillin; erythromycin and vancomycin.
(§7) The bacterial strains tested are S. aureusATCC 29213; S. aureus 1199b overexpressing NorA and also S. aureus 1199, the strain from which it is derived; S. aureus K1712 not expressing NorA and also S. aureus 8325.4 (the strain from which it is derived).
(§8) The methodology used is based on the MIC technique described previously.

[13] = test system: S. aureus K1712 not expressing NorA; test: as above; type: cell-based, Staphylococcus aureus; details: strain not expressing NorA
Experimental: as §5, §6, §7, §8

[14] = test system: S. aureus 1199b overexpressing NorA; test: as above; type: cell-based, Staphylococcus aureus; details: for potentiating activity in the presence of tetracycline and of erythromycin: 1199b strain
Experimental: as §5, §6, §7, §8

[15] = test system: S. aureus ATCC 29213; test: Antibiotic activity of the compounds alone (MIC technique); type: cell-based, Staphylococcus aureus; details: compound alone, 18-24 h at 37° C., MH II medium
Experimental: All the compounds according to the invention are solubilized in dimethylsufoxide (DMSO). For each compound, the highest concentration usable during the experiments is determined by taking into account the toxicity of the solvent (final concentration of DMSO in contact with the bacteria of less than 3%) and also the capacity of the compound to solubilize in Mueller Hinton II (MH II) media. This is because some compounds precipitate during dilutions of solutions based on DMSO in MH II media. The strain for screening the compounds is a strain of Staphylococcus aureus from the American Type Culture Collection or ATCC, called S. aureus ATCC 29213. The antibiotic activity of a molecule is evaluated using the MIC technique. The MIC of a molecule is determined in a 96-well microplate, in MH II liquid medium according to the protocol of the CASFM and of the CLSI. A dilution range of the molecule is prepared beforehand in MH II medium. In each well, 100 μl of a bacterial suspension of SI aureus ATCC 29213 (10^6 CFU/ml), 50 μl of the dilution range of the compound tested and 50 μl of MH II are mixed. After 18-24 h of incubation at 37° C., the molecules having shown an inhibition of bacterial growth are recorded as having an antibiotic activity. The lowest concentration of compound for which no bacterial growth is observed is the MIC (lowest concentration inhibiting the growth of the bacteria).

- melting point: 189 to 190 °C
SMILES: COc1cc(O)c2c3c(c(=O)[nH]c2c1)CCC3 [compound I.15, 2,3-dihydro-9-hydroxy-7-methoxy-1H-cyclopenta[c]quinolin-4(5H)-one]

SMILES: COc1cc(O)c2c(C)c(-c3ccccc3)c(=O)[nH]c2c1 [compound I.12, 5-hydroxy-7-methoxy-4-methyl-3-phenylquinolin-2(1H)-one]
- number of strains more sensitive to ciprofloxacin when the compound is combined ([1]; among the 56 bacterial strains tested): 28
- factor by which the ciprofloxacin MICs are divided in the presence of the compound ([1]; each of the 28 sensitive strains, except one): 16
- factor by which the ciprofloxacin MIC is divided in the presence of the compound ([1]; the one exception among the 28 sensitive strains): ≥ 4
- FIC (fractional inhibitory concentration) [2]: ≤ 0.5
- sensitive strains / strains tested, combination with ciprofloxacin ([3]; E. faecalis (4 are VREs)): 5/7
- Number of sensitive strains ([3]; E. faecalis VRE, 6 tested): 4
- Percentage of sensitive strains ([3]; E. faecalis VRE): 67%
- Number of sensitive strains ([3]; E. faecalis VSE, 1 tested): 1
- Percentage of sensitive strains ([3]; E. faecalis VSE): 100%
- interaction with antibiotics (chessboard) [4]: absence of interaction
- interaction with antibiotics (chessboard) [5]: highly synergistic combination
- reduction of CFU/ml of the combination versus the most active molecule alone (synergistic effect) [6]: ≥ 2 log10
- Number of sensitive strains ([7]; MRSA, 10 strains tested): 10
- Percentage of sensitive strains ([7]; MRSA): 100%
- Number of sensitive strains ([7]; MSSA, 2 strains tested): 2
- Percentage of sensitive strains ([7]; MSSA): 100%
- sensitive strains / strains tested, combination with ciprofloxacin ([7]; S. aureus sensitive to conventional antibiotics): 2/2
- sensitive strains / strains tested, combination with ciprofloxacin ([7]; S. aureus with reduced sensitivity to vancomycin (VISA)): 5/5
- Number of sensitive strains ([7]; VISA, 5 strains tested): 5
- Percentage of sensitive strains ([7]; VISA): 100%
- sensitive strains / strains tested, combination with ciprofloxacin ([7]; methicillin-resistant S. aureus (MRSA)): 10/10
- FIC (fractional inhibitory concentration) [8]: ≤ 0.5
- sensitive strains / strains tested, combination with ciprofloxacin ([9]; E. faecium (the 5 being VREs)): 5/9
- Number of sensitive strains ([9]; E. faecium VRE, 8 tested): 5
- Percentage of sensitive strains ([9]; E. faecium VRE): 62.5%
- Number of sensitive strains ([9]; E. faecium VSE, 1 tested): 0
- Percentage of sensitive strains ([9]; E. faecium VSE): 0
- factor by which the ciprofloxacin MIC is divided in the presence of the compound ([9]; two E. faecium VRE strains not listed in the 28, weakly sensitive): ≥ 2
- FIC (fractional inhibitory concentration) [10]: ≤ 0.5
- sensitive strains / strains tested, combination with ciprofloxacin ([11]; S. epidermidis): 1/1
- Number of sensitive strains ([11]; S. epidermidis sensitive strain, 1 tested, ciprofloxacin + I.12): 1
- Percentage of sensitive strains ([11]; S. epidermidis sensitive strain, ciprofloxacin + I.12): 100%

SMILES: COc1cc(OC)c2c(C)c(-c3c[nH]c4ccccc34)c(=O)[nH]c2c1 [compound I.6, 3-(1H-indol-3-yl)-5,7-dimethoxy-4-methylquinolin-2(1H)-one]
- potentiating activity coupled to non-fluoroquinolone antibiotics ([12]; tetracycline, oxacillin, erythromycin, vancomycin): not very effective
- potentiating activity of the combinations [13]: zero
- potentiating activity in the presence of tetracycline and of erythromycin [14]: does not exist
- potentiating activity combined with one of the two fluoroquinolones ([14]; norfloxacin or ciprofloxacin, strain overexpressing NorA): particularly notable

SMILES: COc1cc(O)c2c(C)c(Cc3ccccc3)c(=O)[nH]c2c1 [compound I.14, 3-benzyl-5-hydroxy-7-methoxy-4-methylquinolin-2(1H)-one]
- improvement in the MICs (fold) in the presence of norfloxacin and of ciprofloxacin ([12]; I.1 24 μmol/l, I.6 16 μmol/l, I.14 31 μmol/l): results are identical
- potentiating activity in the presence of tetracycline and of erythromycin [14]: weak activity
- melting point: > 278 °C (dec.)

SMILES: COc1cc(OC)c2c(C)c(-c3cccc(Cl)c3)c(=O)[nH]c2c1 [compound I.1, 3-(3-chlorophenyl)-5,7-dimethoxy-4-methylquinolin-2(1H)-one]
- EPI effects of the compound in combination with antibiotics ([12]; I.1 at 24 μmol/l): minor

- antibiotic activity alone, concentration (MIC) [15]: 155 µM
SMILES: Cc1c(-c2ccccc2)c(=O)[nH]c2cc(O)cc(O)c12 [compound I.13, 5,7-dihydroxy-4-methyl-3-phenylquinolin-2(1H)-one]
